Measurements as given in patent publication US9468650B2, “Inhibition of endosomal toll-like receptor activation” (DUKE UNIVERSITY, priority 2009, dated 2016).

Columns and labels:
[1] = mouse, in vivo; cited from earlier work
[2] = mouse, in vivo, 40 mg/kg
mammalian cell lines = conditions: cited from earlier work
TLR3 = assay: Cytokine production (TNFα, IL-6) of murine macrophage Raw264.7 stimulated with poly I:C; assay type: cell-based; conditions: TNFα and IL-6 by ELISA

| Substance | adverse effects on viability of mice [2] | cytotoxicity (remark) (mammalian cell lines) | concentration inducing over 50% cell death (Raw264.7 cells) | other results |
| --- | --- | --- | --- | --- |
| β-cyclodextrin-containing polycation [CDP] | no adverse effects on viability |  |  | LD50 [1]: 200 mg/kg; tolerability on macrophages (Raw264.7 cells): well tolerated |
| Polyethyleneimine [PEI] |  | 3. high cytotoxicity. |  |  |
| polyamidoamine dendrimer, 1,4-diaminobutane core, G3 [PAMAM] | no adverse effects on viability |  | about 160 μg/ml |  |
| Poly(allylamine) [PAL] |  | 1. Commercially available. 2. Highly positive charged 3. Low toxicity. |  |  |
| protamine [reference compound] |  |  | ~280 µg/mL | effect on poly I:C (TLR3 ligand) induced inflammatory cytokine production (TLR3): did not block but significantly enhanced |
